Reference: PMC9067983, “Identification of highly selective type II kinase inhibitors with chiral peptidomimetic tails” (Journal of Enzyme Inhibition and Medicinal Chemistry, 2022)
Where a SMILES comes first, the peptide text is derived from it. [ ]: non-standard residue; d: D form. The star is where a group is joined. X1 = Cc1ccc(Nc2ncc3c(n2)N(C)C(=O)N(c2cc(C(=O)*)ccc2C)C3)cn1; Aib = CC(C)(N)C(=O)O

What was measured:
Experiment in all cases: kinase selectivity profiling
Type in all cases: biochemical
Details in all cases: 10µM ATP, read-out: % inhibition (relative to DMSO)
[1] = molecular target: T1, MARK1 (Homo sapiens, UniProt Q9P0L2)
T1 construct: purchased Reaction Biology Corp
Procedure: (§1) Full panel kinase profiling and kinase IC50 measurement were performed by using Reaction Biology Corp. (San Diego, USA).

[2] = molecular target: T2, CDK9/cyclin K (Homo sapiens, UniProt P50750)
T2 construct: purchased Reaction Biology Corp
Procedure: as §1

[3] = molecular target: T3, FGFR2 (Homo sapiens, UniProt P21802)
T3 construct: purchased Reaction Biology Corp
Procedure: as §1

[4] = molecular target: T4, ERN1/IRE1 (Homo sapiens, UniProt O75460)
T4 construct: purchased Reaction Biology Corp
Procedure: as §1

[5] = molecular target: T5, BRSK1 (Homo sapiens, UniProt Q8TDC3)
T5 construct: purchased Reaction Biology Corp
Procedure: as §1

[6] = molecular target: T6, MYO3b (Homo sapiens, UniProt Q8WXR4)
T6 construct: purchased Reaction Biology Corp
Procedure: as §1

[7] = molecular target: T7, ARK5/NUAK1 (Homo sapiens, UniProt O60285)
T7 construct: purchased Reaction Biology Corp
Procedure: as §1

[8] = molecular target: T8, HIPK3 (Homo sapiens, UniProt Q9H422)
T8 construct: purchased Reaction Biology Corp
Procedure: as §1

[9] = molecular target: T9, CK1a1 (Homo sapiens, UniProt P48729)
T9 construct: purchased Reaction Biology Corp
Procedure: as §1

[10] = molecular target: T10, MKK6 (Homo sapiens, UniProt P52564)
T10 construct: purchased Reaction Biology Corp
Procedure: as §1

[11] = molecular target: T11, TSSK2 (Homo sapiens, UniProt Q96PF2)
T11 construct: purchased Reaction Biology Corp
Procedure: as §1

[12] = molecular target: T12, CDK9/cyclin T1 (Homo sapiens, UniProt P50750)
T12 construct: purchased Reaction Biology Corp
Procedure: as §1

[13] = molecular target: T13, NIM1 (Homo sapiens, UniProt Q8IY84)
T13 construct: purchased Reaction Biology Corp
Procedure: as §1

[14] = molecular target: T14, MAPKAPK3 (Homo sapiens, UniProt Q16644)
T14 construct: purchased Reaction Biology Corp
Procedure: as §1

[15] = molecular target: T15, PKCd (Homo sapiens, UniProt Q05655)
T15 construct: purchased Reaction Biology Corp
Procedure: as §1

[16] = molecular target: T16, JAK1 (Homo sapiens, UniProt P23458)
T16 construct: purchased Reaction Biology Corp
Procedure: as §1

[17] = molecular target: T17, PKCeta (Homo sapiens, UniProt P24723)
T17 construct: purchased Reaction Biology Corp
Procedure: as §1

[18] = molecular target: T18, TESK1 (Homo sapiens, UniProt Q15569)
T18 construct: purchased Reaction Biology Corp
Procedure: as §1

[19] = molecular target: T19, CDK19/cyclin C (Homo sapiens, UniProt Q9BWU1)
T19 construct: purchased Reaction Biology Corp
Procedure: as §1

[20] = molecular target: T20, STK25/YSK1 (Homo sapiens, UniProt O00506)
T20 construct: purchased Reaction Biology Corp
Procedure: as §1

[21] = molecular target: T21, PKCb2 (Homo sapiens, UniProt P05771)
T21 construct: purchased Reaction Biology Corp
Procedure: as §1

[22] = molecular target: T22, MRCKa/CDC42BPA (Homo sapiens, UniProt Q5VT25)
T22 construct: purchased Reaction Biology Corp
Procedure: as §1

[23] = molecular target: T23, CDK4/cyclin D1 (Homo sapiens, UniProt P11802)
T23 construct: purchased Reaction Biology Corp
Procedure: as §1

[24] = molecular target: T24, c-Kit (Homo sapiens, UniProt P10721)
T24 construct: purchased Reaction Biology Corp
Procedure: as §1

[25] = molecular target: T25, MKK4 (Homo sapiens, UniProt P45985)
T25 construct: purchased Reaction Biology Corp
Procedure: as §1

[26] = molecular target: T26, EPHA4 (Homo sapiens, UniProt P54764)
T26 construct: purchased Reaction Biology Corp
Procedure: as §1

[27] = molecular target: T27, GRK1 (Homo sapiens, UniProt Q15835)
T27 construct: purchased Reaction Biology Corp
Procedure: as §1

[28] = molecular target: T28, RIPK4 (Homo sapiens, UniProt P57078)
T28 construct: purchased Reaction Biology Corp
Procedure: as §1

[29] = molecular target: T29, ZAP70 (Homo sapiens, UniProt P43403)
T29 construct: purchased Reaction Biology Corp
Procedure: as §1

[30] = molecular target: T30, CDK2/cyclin E (Homo sapiens, UniProt P24941)
T30 construct: purchased Reaction Biology Corp
Procedure: as §1

[31] = molecular target: T31, MLCK/MYLK (Homo sapiens, UniProt Q15746)
T31 construct: purchased Reaction Biology Corp
Procedure: as §1

[32] = molecular target: T32, Abl1 (Homo sapiens, UniProt P00519)
T32 construct: purchased Reaction Biology Corp
Procedure: as §1

[33] = molecular target: T33, ERBB2/HER2 (Homo sapiens, UniProt P04626)
T33 construct: purchased Reaction Biology Corp
Procedure: as §1

[34] = molecular target: T34, RET (Homo sapiens, UniProt P07949)
T34 construct: purchased Reaction Biology Corp
Procedure: as §1

[35] = molecular target: T35, ACK1 (Homo sapiens, UniProt Q07912)
T35 construct: purchased Reaction Biology Corp
Procedure: as §1

[36] = molecular target: T36, CAMK2g (Homo sapiens, UniProt Q13555)
T36 construct: purchased Reaction Biology Corp
Procedure: as §1

[37] = molecular target: T37, MINK/MINK1 (Homo sapiens, UniProt Q8N4C8)
T37 construct: purchased Reaction Biology Corp
Procedure: as §1

[38] = molecular target: T38, CAMK1b (Homo sapiens, UniProt Q6P2M8)
T38 construct: purchased Reaction Biology Corp
Procedure: as §1

[39] = molecular target: T39, MAK (Homo sapiens, UniProt P20794)
T39 construct: purchased Reaction Biology Corp
Procedure: as §1

[40] = molecular target: T40, p70S6Kb/RPS6KB2 (Homo sapiens, UniProt Q9UBS0)
T40 construct: purchased Reaction Biology Corp
Procedure: as §1

[41] = molecular target: T41, DRAK1/STK17A (Homo sapiens, UniProt Q9UEE5)
T41 construct: purchased Reaction Biology Corp
Procedure: as §1

[42] = molecular target: T42, LATS1 (Homo sapiens, UniProt O95835)
T42 construct: purchased Reaction Biology Corp
Procedure: as §1

T28 sequence (P57078 whole entry): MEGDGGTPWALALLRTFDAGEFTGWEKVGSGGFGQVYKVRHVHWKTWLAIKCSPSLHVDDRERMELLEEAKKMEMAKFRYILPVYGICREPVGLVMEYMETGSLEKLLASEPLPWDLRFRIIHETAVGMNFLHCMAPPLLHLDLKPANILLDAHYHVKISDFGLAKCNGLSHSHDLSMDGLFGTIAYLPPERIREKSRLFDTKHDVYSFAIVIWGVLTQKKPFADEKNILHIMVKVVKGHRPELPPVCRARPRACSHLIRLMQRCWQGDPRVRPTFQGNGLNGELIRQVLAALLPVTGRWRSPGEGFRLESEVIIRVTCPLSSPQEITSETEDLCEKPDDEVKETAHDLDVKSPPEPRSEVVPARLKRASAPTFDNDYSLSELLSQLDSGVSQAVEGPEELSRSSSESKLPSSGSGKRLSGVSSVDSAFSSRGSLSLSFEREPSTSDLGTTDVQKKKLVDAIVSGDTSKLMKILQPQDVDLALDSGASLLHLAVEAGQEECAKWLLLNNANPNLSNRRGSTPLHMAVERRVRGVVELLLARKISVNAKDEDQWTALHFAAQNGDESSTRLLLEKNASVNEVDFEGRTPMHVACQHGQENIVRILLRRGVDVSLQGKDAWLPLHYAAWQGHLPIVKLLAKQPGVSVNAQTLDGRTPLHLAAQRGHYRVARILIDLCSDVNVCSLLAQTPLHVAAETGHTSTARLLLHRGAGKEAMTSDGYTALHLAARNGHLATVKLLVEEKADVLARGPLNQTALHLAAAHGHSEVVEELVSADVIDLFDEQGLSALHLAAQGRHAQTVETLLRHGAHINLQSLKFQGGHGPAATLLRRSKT
T14 sequence (Q16644 whole entry): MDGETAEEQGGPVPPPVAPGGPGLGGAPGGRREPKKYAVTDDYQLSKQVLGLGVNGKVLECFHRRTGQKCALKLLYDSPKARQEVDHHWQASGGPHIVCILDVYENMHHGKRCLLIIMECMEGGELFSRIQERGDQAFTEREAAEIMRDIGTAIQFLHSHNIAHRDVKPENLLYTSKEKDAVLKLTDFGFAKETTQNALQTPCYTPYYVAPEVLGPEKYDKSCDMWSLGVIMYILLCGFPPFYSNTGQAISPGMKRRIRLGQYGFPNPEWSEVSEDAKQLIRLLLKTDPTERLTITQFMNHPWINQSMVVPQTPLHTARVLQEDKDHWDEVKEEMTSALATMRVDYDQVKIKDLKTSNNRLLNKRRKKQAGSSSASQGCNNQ
T15 sequence (Q05655 whole entry): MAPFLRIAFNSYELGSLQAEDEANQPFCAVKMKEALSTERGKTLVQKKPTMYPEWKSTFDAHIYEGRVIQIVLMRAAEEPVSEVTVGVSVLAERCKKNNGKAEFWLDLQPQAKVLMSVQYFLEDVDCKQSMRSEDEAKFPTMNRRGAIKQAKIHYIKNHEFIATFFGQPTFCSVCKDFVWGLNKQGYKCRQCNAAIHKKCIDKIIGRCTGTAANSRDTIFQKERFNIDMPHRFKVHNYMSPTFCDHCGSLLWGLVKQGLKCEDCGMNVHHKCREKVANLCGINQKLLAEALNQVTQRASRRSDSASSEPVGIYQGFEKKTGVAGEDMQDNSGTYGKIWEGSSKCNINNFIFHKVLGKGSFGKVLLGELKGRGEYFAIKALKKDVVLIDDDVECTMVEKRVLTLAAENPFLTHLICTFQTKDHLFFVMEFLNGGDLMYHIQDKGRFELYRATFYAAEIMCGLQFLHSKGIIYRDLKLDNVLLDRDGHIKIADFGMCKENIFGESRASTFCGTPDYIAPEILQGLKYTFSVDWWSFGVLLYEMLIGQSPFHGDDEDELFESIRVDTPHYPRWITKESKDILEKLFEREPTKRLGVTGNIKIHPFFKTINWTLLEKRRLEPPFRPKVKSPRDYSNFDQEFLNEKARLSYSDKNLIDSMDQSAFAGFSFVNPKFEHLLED
T16 sequence (P23458 whole entry): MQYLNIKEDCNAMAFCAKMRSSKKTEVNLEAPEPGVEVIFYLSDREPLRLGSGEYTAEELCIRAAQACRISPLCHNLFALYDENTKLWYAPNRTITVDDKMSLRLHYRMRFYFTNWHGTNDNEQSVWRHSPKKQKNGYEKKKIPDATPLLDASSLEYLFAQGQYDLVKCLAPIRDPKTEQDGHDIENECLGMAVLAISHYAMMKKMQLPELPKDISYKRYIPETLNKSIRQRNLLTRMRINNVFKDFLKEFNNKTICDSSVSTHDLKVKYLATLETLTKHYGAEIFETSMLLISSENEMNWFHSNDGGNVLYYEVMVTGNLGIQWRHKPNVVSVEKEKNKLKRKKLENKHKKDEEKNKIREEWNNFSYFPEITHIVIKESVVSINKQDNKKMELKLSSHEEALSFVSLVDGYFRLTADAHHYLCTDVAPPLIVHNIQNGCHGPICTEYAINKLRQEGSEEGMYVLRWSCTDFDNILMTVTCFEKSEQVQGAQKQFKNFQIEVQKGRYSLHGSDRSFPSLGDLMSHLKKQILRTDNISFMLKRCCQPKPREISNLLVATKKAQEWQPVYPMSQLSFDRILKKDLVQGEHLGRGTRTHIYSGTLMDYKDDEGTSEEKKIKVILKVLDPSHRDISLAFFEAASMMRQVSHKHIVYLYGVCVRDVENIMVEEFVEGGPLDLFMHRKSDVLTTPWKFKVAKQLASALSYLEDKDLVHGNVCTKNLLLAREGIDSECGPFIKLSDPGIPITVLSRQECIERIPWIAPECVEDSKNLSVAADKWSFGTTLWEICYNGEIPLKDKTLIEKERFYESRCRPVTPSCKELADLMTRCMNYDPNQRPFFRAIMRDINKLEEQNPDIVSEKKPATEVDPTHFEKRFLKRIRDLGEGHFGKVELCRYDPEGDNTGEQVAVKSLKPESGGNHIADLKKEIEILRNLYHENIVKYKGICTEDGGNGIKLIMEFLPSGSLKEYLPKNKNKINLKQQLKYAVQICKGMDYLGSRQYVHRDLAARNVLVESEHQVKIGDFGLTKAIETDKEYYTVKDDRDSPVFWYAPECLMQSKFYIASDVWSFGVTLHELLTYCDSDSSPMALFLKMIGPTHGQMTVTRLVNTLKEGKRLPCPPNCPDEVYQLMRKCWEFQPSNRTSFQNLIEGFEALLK
T42 sequence (O95835 whole entry): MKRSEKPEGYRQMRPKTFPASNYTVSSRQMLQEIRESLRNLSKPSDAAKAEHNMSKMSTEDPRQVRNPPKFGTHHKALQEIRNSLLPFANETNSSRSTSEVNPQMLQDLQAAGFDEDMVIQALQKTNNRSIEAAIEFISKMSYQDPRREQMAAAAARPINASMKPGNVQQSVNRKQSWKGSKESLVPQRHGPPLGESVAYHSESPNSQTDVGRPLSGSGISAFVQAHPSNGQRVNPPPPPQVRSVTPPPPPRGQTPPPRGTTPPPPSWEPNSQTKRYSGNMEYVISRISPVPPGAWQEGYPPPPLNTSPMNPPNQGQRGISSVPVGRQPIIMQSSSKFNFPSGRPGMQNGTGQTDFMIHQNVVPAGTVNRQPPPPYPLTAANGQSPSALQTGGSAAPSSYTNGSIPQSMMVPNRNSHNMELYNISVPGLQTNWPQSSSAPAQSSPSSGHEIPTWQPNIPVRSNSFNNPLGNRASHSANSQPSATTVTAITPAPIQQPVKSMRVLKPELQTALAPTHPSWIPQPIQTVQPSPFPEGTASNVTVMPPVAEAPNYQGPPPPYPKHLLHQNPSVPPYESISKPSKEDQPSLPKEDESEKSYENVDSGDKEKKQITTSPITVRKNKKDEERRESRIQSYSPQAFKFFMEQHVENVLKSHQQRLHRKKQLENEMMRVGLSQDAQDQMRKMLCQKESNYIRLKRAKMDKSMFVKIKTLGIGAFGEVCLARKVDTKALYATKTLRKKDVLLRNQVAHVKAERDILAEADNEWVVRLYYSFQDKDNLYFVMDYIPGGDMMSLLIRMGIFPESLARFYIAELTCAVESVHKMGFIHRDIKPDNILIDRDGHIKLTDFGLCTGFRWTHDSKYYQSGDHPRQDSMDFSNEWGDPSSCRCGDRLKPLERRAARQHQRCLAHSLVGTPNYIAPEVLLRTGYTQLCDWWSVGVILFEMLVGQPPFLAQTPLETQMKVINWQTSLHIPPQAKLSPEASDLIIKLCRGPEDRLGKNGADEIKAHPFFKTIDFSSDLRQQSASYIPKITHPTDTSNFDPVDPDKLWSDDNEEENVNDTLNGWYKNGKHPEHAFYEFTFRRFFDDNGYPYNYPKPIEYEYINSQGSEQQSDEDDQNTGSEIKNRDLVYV
T7 sequence (O60285 whole entry): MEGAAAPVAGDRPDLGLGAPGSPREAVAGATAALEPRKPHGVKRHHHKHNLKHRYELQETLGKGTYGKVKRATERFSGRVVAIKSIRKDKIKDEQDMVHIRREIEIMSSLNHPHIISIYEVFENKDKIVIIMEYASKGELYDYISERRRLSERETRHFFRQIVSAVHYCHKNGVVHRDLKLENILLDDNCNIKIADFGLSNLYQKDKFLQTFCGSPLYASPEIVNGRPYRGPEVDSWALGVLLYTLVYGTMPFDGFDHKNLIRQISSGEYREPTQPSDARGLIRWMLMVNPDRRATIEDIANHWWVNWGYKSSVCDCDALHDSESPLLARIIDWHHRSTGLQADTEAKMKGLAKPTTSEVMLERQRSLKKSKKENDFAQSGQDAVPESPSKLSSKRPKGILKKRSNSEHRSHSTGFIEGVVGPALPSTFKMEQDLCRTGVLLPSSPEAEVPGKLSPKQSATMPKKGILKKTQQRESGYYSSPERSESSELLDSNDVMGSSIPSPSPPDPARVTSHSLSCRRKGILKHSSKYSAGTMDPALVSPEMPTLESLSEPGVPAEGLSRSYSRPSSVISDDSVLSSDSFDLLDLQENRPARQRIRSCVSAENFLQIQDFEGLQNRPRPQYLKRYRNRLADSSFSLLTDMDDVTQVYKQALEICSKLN

Question: With Cc1ccc(Nc2ncc3c(n2)N(C)C(=O)N(c2cc(C(=O)N[C@H](C(=O)N4CCC[C@H]4C(=O)NC(C)(C)C(=O)N[C@@H](CC(C)C)C(=O)N(C)C)C(C)C)ccc2C)C3)cn1 [7a, (S)-N-(1-(((S)-1-(dimethylamino)-4-methyl-1-oxopentan-2-yl)amino)-2-methyl-1-oxopropan-2-yl)-1-((4-methyl-3-(1-methyl-7-((6-methylpyridin-3-yl)amino)-2-oxo-1,4-dihydropyrimido[4,5-d]pyrimidin-3(2H)-yl)benzoyl)-L-valyl)pyrrolidine-2-carboxamide] (X1-VP[Aib]L-NMe2) as the compound, how does the inhibition at 1 µM [1] read?
Answer: The inhibition at 1 µM was 0%.

Question: What about the inhibition at 1 µM [2] of the same compound?
Answer: The inhibition at 1 µM was 0%.

Question: And the inhibition at 1 µM [3]?
Answer: The inhibition at 1 µM was 12%.

Question: What about the inhibition at 1 µM [4] of the same compound?
Answer: Its inhibition at 1 µM is 5%.

Question: What about the inhibition at 1 µM [5] of the same compound?
Answer: The inhibition at 1 µM was 2%.

Question: And the inhibition at 1 µM [6]?
Answer: The inhibition at 1 µM was 0%.

Question: What about the inhibition at 1 µM [7] of the same compound?
Answer: Its inhibition at 1 µM is 9%.

Question: And the inhibition at 1 µM [8]?
Answer: Its inhibition at 1 µM is 0%.

Question: What about the inhibition at 1 µM [9] of the same compound?
Answer: Its inhibition at 1 µM is 0%.

Question: What about the inhibition at 1 µM [10] of the same compound?
Answer: The inhibition at 1 µM was 8%.

Question: And the inhibition at 1 µM [11]?
Answer: The inhibition at 1 µM was 0%.

Question: And the inhibition at 1 µM [12]?
Answer: Its inhibition at 1 µM is 0%.

Question: And the inhibition at 1 µM [13]?
Answer: The inhibition at 1 µM was 4%.

Question: What about the inhibition at 1 µM [14] of the same compound?
Answer: Its inhibition at 1 µM is 2%.

Question: And the inhibition at 1 µM [15]?
Answer: The inhibition at 1 µM was 0%.

Question: What about the inhibition at 1 µM [16] of the same compound?
Answer: Its inhibition at 1 µM is 9%.

Question: And the inhibition at 1 µM [17]?
Answer: The inhibition at 1 µM was 27%.

Question: What about the inhibition at 1 µM [18] of the same compound?
Answer: The inhibition at 1 µM was 0%.

Question: And the inhibition at 1 µM [19]?
Answer: The inhibition at 1 µM was 0%.

Question: What about the inhibition at 1 µM [20] of the same compound?
Answer: Its inhibition at 1 µM is 3%.

Question: What about the inhibition at 1 µM [21] of the same compound?
Answer: Its inhibition at 1 µM is 0%.

Question: And the inhibition at 1 µM [22]?
Answer: The inhibition at 1 µM was 6%.

Question: And the inhibition at 1 µM [23]?
Answer: Its inhibition at 1 µM is 0%.

Question: What about the inhibition at 1 µM [24] of the same compound?
Answer: The inhibition at 1 µM was 27%.

Question: And the inhibition at 1 µM [25]?
Answer: Its inhibition at 1 µM is 2%.

Question: And the inhibition at 1 µM [26]?
Answer: The inhibition at 1 µM was 29%.

Question: What about the inhibition at 1 µM [27] of the same compound?
Answer: Its inhibition at 1 µM is 0%.

Question: And the inhibition at 1 µM [28]?
Answer: The inhibition at 1 µM was 15%.

Question: What about the inhibition at 1 µM [29] of the same compound?
Answer: Its inhibition at 1 µM is 0%.

Question: What about the inhibition at 1 µM [30] of the same compound?
Answer: Its inhibition at 1 µM is 0%.

Question: And the inhibition at 1 µM [31]?
Answer: The inhibition at 1 µM was 0%.

Question: What about the inhibition at 1 µM [32] of the same compound?
Answer: The inhibition at 1 µM was 63%.

Question: And the inhibition at 1 µM [33]?
Answer: The inhibition at 1 µM was 10%.

Question: What about the inhibition at 1 µM [34] of the same compound?
Answer: Its inhibition at 1 µM is 9%.

Question: And the inhibition at 1 µM [35]?
Answer: The inhibition at 1 µM was 0%.

Question: And the inhibition at 1 µM [36]?
Answer: Its inhibition at 1 µM is 0%.

Question: What about the inhibition at 1 µM [37] of the same compound?
Answer: Its inhibition at 1 µM is 2%.

Question: And the inhibition at 1 µM [38]?
Answer: The inhibition at 1 µM was 15%.

Question: What about the inhibition at 1 µM [39] of the same compound?
Answer: Its inhibition at 1 µM is 0%.

Question: And the inhibition at 1 µM [40]?
Answer: The inhibition at 1 µM was 0%.

Question: What about the inhibition at 1 µM [41] of the same compound?
Answer: The inhibition at 1 µM was 0%.

Question: And the inhibition at 1 µM [42]?
Answer: The inhibition at 1 µM was 4%.
